Test results as given in patent publication US9850283B2, “Macrocyclic inhibitors of the PD-1/PD-L1 and CD80(B7-1)/PD-L1 protein/protein interactions” (BRISTOL-MYERS SQUIBB COMPANY, priority 2013, dated 2017).
Like-named read-outs stand apart in the source and are kept apart here. Positions of bridges follow the written chain, without caps; N, C: chain ends. Non-standard residues stand in square brackets, D forms with d. Residues, ends and D or L forms follow the SMILES beside them. ξ: configuration not given here. Phe(F5) = N[C@@H](Cc1c(F)c(F)c(F)c(F)c1F)C(=O)O; NMeIle(3ξ) = CCC(C)[C@H](NC)C(=O)O; cisHyp = O=C(O)[C@@H]1C[C@H](O)CN1; Hyp = O=C(O)[C@@H]1C[C@@H](O)CN1; NMeF = CN[C@@H](Cc1ccccc1)C(=O)O; NMeNle = CCCC[C@H](NC)C(=O)O; NMeA = CN[C@@H](C)C(=O)O; Nle = CCCC[C@H](N)C(=O)O; Orn = NCCC[C@H](N)C(=O)O; dNMeA = CN[C@H](C)C(=O)O; Dab = NCC[C@H](N)C(=O)O; dAze = O=C(O)[C@H]1CCN1; Dap = NC[C@H](N)C(=O)O; ξC = NC(CS)C(=O)O; Sar = CNCC(=O)O

Assays:
Human PD-L1/PD-1 = target: T1, Human PD-L1/PD-1 (Homo sapiens, UniProt Q9NZQ7); assay: HTRF PD-1-Ig/PD-L1-His binding assay (human PD-L1)
T1 construct: made in house; host or cells: HEK293T
T1 sequence (Q9NZQ7 with tags, fused parts or gaps): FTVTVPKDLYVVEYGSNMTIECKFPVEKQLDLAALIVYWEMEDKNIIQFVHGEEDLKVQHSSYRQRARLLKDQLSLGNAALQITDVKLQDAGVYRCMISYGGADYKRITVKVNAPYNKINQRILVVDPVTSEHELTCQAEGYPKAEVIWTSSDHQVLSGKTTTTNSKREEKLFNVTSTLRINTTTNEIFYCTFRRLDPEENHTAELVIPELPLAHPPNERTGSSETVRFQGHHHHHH
In short: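 Readout: time-resolved FRET between Eu cryptate-labeled anti-Ig (1 nM final) and APC-labeled anti-His (20 nM final) antibodies. These detect interaction of Fc-fused PD-1 with His-tagged human PD-L1 in dPBS containing 0.1% BSA and 0.05% Tween-20.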

[1] = target: T2, LK35.2-hPD-L1 cells / PE-labeled PD-1-Ig (Homo sapiens, UniProt Q9NZQ7); assay: LK35.2-hPD-L1 cell binding high-content screening assay; type: cell-based
T2 construct: expressed in transfected cells; host or cells: LK35.2 mouse B cell line
T2 sequence (Q9NZQ7 19-290): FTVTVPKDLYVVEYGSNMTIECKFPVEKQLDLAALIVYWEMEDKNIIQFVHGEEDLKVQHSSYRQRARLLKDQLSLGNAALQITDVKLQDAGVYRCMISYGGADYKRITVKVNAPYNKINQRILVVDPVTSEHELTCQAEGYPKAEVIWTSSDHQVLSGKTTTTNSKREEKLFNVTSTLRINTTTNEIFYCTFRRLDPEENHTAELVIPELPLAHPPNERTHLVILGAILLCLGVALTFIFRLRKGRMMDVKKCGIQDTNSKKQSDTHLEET
In short: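 Using overnight-cultured LK35.2-hPD-L1 mouse B cells, compound was co-incubated with phycoerythrin-tagged human PD-1-Ig (final 1 nM) at 37 °C for one hour. Unbound label was removed by triple dPBS washing prior to high-content image acquisition and analysis.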

[2] = cluster symbol, read-out: HTRF IC50 cluster
[3] = cell binding assay, cell line not given, cluster symbol, read-out: CBA IC50 cluster
[4] = cluster symbol, cell line of CBA not given (LK35.2-hPD-L1 or 293T-hPD-L1), read-out: CBA IC50 cluster

Structure (SMILES) | IC50 (Human PD-L1/PD-1; [2]) | IC50 [1, 3] | IC50 [1, 4] | IC50 (Human PD-L1/PD-1; read-out: HTRF IC50 value) | IC50 ([1]; cell line of CBA not given (LK35.2-hPD-L1 or 293T-hPD-L1), read-out: CBA IC50 value)
CCCC[C@H]1C(=O)N(C)[C@@H](C)C(=O)N[C@@H](CCCNC(=N)N)C(=O)NC(C(=O)NCC(N)=O)CSCC(=O)N[C@@H](Cc2ccc(O)cc2)C(=O)N(C)[C@@H](C)C(=O)N[C@@H](CC(N)=O)C(=O)N2CCC[C@H]2C(=O)N[C@@H](CO)C(=O)N[C@@H](CC(C)C)C(=O)N2CCC[C@H]2C(=O)N[C@@H](Cc2c[nH]c3ccccc23)C(=O)N[C@@H](CO)C(=O)N[C@@H](Cc2c[nH]c3ccccc23)C(=O)N1C (stereo partly shown) [Example 9110] ({CH2CO}-Y[NMeA]NPSLPWSW[NMeNle][NMeA]R[ξC]G-NH2; thioether N-14) | 0.385 to 6.74 nM | 4.78 to 72.9 nM | – | – | –
CCCC[C@H]1C(=O)N(C)[C@@H](CCCC)C(=O)N[C@@H](CCCNC(=N)N)C(=O)N[C@H](C(=O)NCC(N)=O)CSCC(=O)N[C@@H](Cc2ccc(O)cc2)C(=O)N(C)[C@@H](C)C(=O)N[C@@H](CCCN)C(=O)N2CCC[C@H]2C(=O)N[C@@H](C)C(=O)N[C@@H](CC(C)C)C(=O)N2C[C@@H](O)C[C@H]2C(=O)N[C@@H](Cc2c[nH]c3ccccc23)C(=O)N[C@@H](CO)C(=O)N[C@@H](Cc2c[nH]c3ccccc23)C(=O)N1C [Example 1146] ({CH2CO}-Y[NMeA][Orn]PAL[cisHyp]WSW[NMeNle][NMeNle]RCG-NH2; thioether N-14) | 6.76 to 30.3 nM | – | > 74.3 nM | – | –
CCCC[C@H]1C(=O)N(C)CC(=O)N[C@@H](CC(=O)O)C(=O)N[C@@H](C(C)C)C(=O)N(C)[C@@H](Cc2ccccc2)C(=O)N[C@@H](Cc2ccc(O)cc2)C(=O)N(C)[C@H](C)C(=O)N[C@@H](Cc2c[nH]c3ccccc23)C(=O)N[C@@H](Cc2ccc(O)cc2)C(=O)N[C@@H](CC(C)C)C(=O)N[C@H](C(=O)NCC(N)=O)CSCC(=O)N[C@@H](Cc2ccccc2)C(=O)N(C)[C@@H](Cc2ccccc2)C(=O)N1C [Example 3551] ({CH2CO}-F[NMeF][NMeNle][Sar]DV[NMeF]Y[dNMeA]WYLCG-NH2; thioether N-13) | 6.76 to 30.3 nM | 4.78 to 72.9 nM | – | – | –
CCCC[C@H]1C(=O)N(C)[C@@H](CCCC)C(=O)N[C@@H](CCCNC(=N)N)C(=O)N[C@H](C(=O)NCC(N)=O)CSCC(=O)N[C@@H](Cc2ccccc2)C(=O)N(C)[C@@H](C)C(=O)N[C@@H](CC(N)=O)C(=O)N2CCC[C@H]2C(=O)N[C@@H](CC(N)=O)C(=O)N[C@@H](CC(C)C)C(=O)N(C)CC(=O)N[C@@H](Cc2c[nH]c3ccccc23)C(=O)N[C@@H](CO)C(=O)N[C@@H](Cc2c[nH]c3ccccc23)C(=O)N1C [Example 1063] ({CH2CO}-F[NMeA]NPNL[Sar]WSW[NMeNle][NMeNle]RCG-NH2; thioether N-14) | > 30.5 nM | – | > 74.3 nM | – | –
CCCC[C@H]1C(=O)N(C)[C@@H](CCCC)C(=O)N[C@@H](CN)C(=O)N[C@H](C(=O)NCC(N)=O)CSCC(=O)N[C@@H](Cc2ccc(O)cc2)C(=O)N(C)[C@@H](C)C(=O)N[C@@H](CC(=O)O)C(=O)N2CCC[C@H]2C(=O)N[C@@H](Cc2c[nH]cn2)C(=O)N[C@@H](CCC(N)=O)C(=O)N2C[C@H](O)C[C@H]2C(=O)N[C@@H](Cc2c[nH]c3ccccc23)C(=O)N[C@@H](CO)C(=O)N[C@@H](Cc2c[nH]c3ccccc23)C(=O)N1C [Example 5101] ({CH2CO}-Y[NMeA]DPHQ[Hyp]WSW[NMeNle][NMeNle][Dap]CG-NH2; thioether N-14) | 0.385 to 6.74 nM | 0.158 to 4.71 nM | – | – | –
CCCC[C@H]1C(=O)N(C)[C@@H](CCCC)C(=O)N[C@@H](CC(C)C)C(=O)N[C@H](C(=O)NCC(N)=O)CSCC(=O)N[C@@H](Cc2ccc(O)cc2)C(=O)N(C)[C@@H](C)C(=O)N[C@@H](CC(N)=O)C(=O)N2CCC[C@H]2C(=O)N[C@@H](Cc2c[nH]cn2)C(=O)N[C@@H](CCC(=O)O)C(=O)N2C[C@H](O)C[C@H]2C(=O)N[C@@H](Cc2c[nH]c3ccccc23)C(=O)N[C@@H](CCN)C(=O)N[C@@H](Cc2c[nH]c3ccccc23)C(=O)N1C [Example 5065] ({CH2CO}-Y[NMeA]NPHE[Hyp]W[Dab]W[NMeNle][NMeNle]LCG-NH2; thioether N-14) | 0.385 to 6.74 nM | 0.158 to 4.71 nM | – | – | –
CCCC[C@H]1C(=O)N(C)CC(=O)N[C@@H](CC(=O)O)C(=O)N[C@@H](C(C)C)C(=O)N(C)[C@@H](Cc2ccccc2)C(=O)N[C@@H](Cc2ccc(O)cc2)C(=O)N2CC[C@@H]2C(=O)N[C@@H](Cc2c[nH]c3ccccc23)C(=O)N[C@@H](Cc2ccc(O)cc2)C(=O)N[C@@H](CC(C)C)C(=O)N[C@H](C(=O)NCC(N)=O)CSCC(=O)N[C@@H](Cc2ccccc2)C(=O)N(C)[C@@H](Cc2ccccc2)C(=O)N1C [Example 3577] ({CH2CO}-F[NMeF][NMeNle][Sar]DV[NMeF]Y[dAze]WYLCG-NH2; thioether N-13) | 0.385 to 6.74 nM | 0.158 to 4.71 nM | – | – | –
CCCC[C@H]1C(=O)N[C@@H](CN)C(=O)N[C@H](C(=O)NCC(N)=O)CSCC(=O)N[C@@H](Cc2ccc(O)cc2)C(=O)N(C)[C@@H](C)C(=O)N[C@@H](CC(N)=O)C(=O)N2CCC[C@H]2C(=O)N[C@@H](Cc2c[nH]cn2)C(=O)N[C@@H](CCC(=O)O)C(=O)N2C[C@H](O)C[C@H]2C(=O)N[C@@H](Cc2c[nH]c3ccccc23)C(=O)N[C@@H](CCN)C(=O)N[C@@H](Cc2c[nH]c3ccccc23)C(=O)N(C)[C@@H](C(C)CC)C(=O)N1C (stereo partly shown) [Example 5146] ({CH2CO}-Y[NMeA]NPHE[Hyp]W[Dab]W[NMeIle(3ξ)][NMeNle][Dap]CG-NH2; thioether N-14) | 6.76 to 30.3 nM | 4.78 to 72.9 nM | – | – | –
CCCC[C@H]1C(=O)N(C)CC(=O)N[C@@H](CC(=O)O)C(=O)N[C@@H](C(C)C)C(=O)N(C)[C@@H](Cc2ccccc2)C(=O)N[C@@H](Cc2ccc(O)cc2)C(=O)N(C)CC(=O)N[C@@H](Cc2c[nH]c3ccccc23)C(=O)N[C@@H](Cc2ccc(O)cc2)C(=O)N[C@@H](CC(C)C)C(=O)N[C@H](C(=O)NCC(N)=O)CSCC(=O)N[C@@H](Cc2ccc(O)cc2)C(=O)N(C)[C@@H](Cc2ccccc2)C(=O)N1C [Example 3065] (HELM PEPTIDE1{[O=C(C[*:3])[*:2]].Y.[meF].[CCCC[C@@H](C(=O)[*:2])N(C)[*:1]].[Sar].D.V.[meF].Y.[Sar].W.Y.L.C.G.[am]}$PEPTIDE1,PEPTIDE1,1:R3-14:R3$$$V2.0) | > 30.5 nM | – | > 74.3 nM | – | –
CCCC[C@@H]1NC(=O)[C@H](CCCC)N(C)C(=O)[C@H](CCCC)N(C)C(=O)[C@H](Cc2c[nH]c3ccccc23)NC(=O)[C@H](CO)NC(=O)[C@H](Cc2c[nH]c3ccccc23)NC(=O)CN(C)C(=O)[C@H](CC(C)C)NC(=O)[C@H](Cc2cnc[nH]2)NC(=O)[C@@H]2CCCN2C(=O)[C@H](CC(N)=O)NC(=O)[C@H](C)N(C)C(=O)[C@H](Cc2ccccc2)NC(=O)CSC[C@@H](C(=O)NCC(N)=O)NC1=O [Example 1071] ({CH2CO}-F[NMeA]NPHL[Sar]WSW[NMeNle][NMeNle][Nle]CG-NH2; thioether N-14) | > 30.5 nM | – | > 74.3 nM | – | –
CCCC[C@H]1C(=O)N(C)CC(=O)N[C@@H](CC(=O)O)C(=O)N[C@@H](C(C)C)C(=O)N(C)[C@@H](Cc2ccccc2)C(=O)N[C@@H](Cc2ccc(O)cc2)C(=O)N(C)CC(=O)N[C@@H](Cc2c[nH]c3ccccc23)C(=O)N[C@@H](Cc2c(F)c(F)c(F)c(F)c2F)C(=O)N[C@@H](CC(C)C)C(=O)N[C@H](C(=O)NCC(N)=O)CSCC(=O)N[C@@H](Cc2ccccc2)C(=O)N(C)[C@@H](Cc2ccccc2)C(=O)N1C [Example 3080] ({CH2CO}-F[NMeF][NMeNle][Sar]DV[NMeF]Y[Sar]W[Phe(F5)]LCG-NH2; thioether N-13) | – | – | – | > 10000 nM | > 10000 nM
